Data from patent US5849782A, “Methods of inhibiting neurodegenerative diseases” (The General Hospital Corporation, priority 1996, dated 1998).

Tests used:
Male Swiss-Webster mice = assay: MPTP-induced neurotoxicity in mice: striatal dopamine, DOPAC, HVA; assay type: in vivo, mouse; details: at 1 week
Method: Methods. Male Swiss-Webster mice (30-35 g:Taconic Farms, Germantown, N.Y., U.S.A.) were treated with either normal saline or MPTP hydrochloride (Research Biochemicals, Natick, Mass., U.S.A.). MPTP was administered in 0.1 ml of water at a dose of 10 mg/kg i.p. at 2-h intervals for six doses or 20 mg/kg i.p. at 2-h intervals for four doses. 7-NI (Cookson Chemical Ltd., Southhampton, U.K.) was dissolved in peanut oil (Sigma, St. Louis, Mo., U.S.A.) at a concentration of 5 mg/ml. Mice received doses of 25 or 50 mg/kg per subcutaneous injection. MPTP-treated animals were treated with peanut oil or 7-NI 12 h before the first, at every MPTP injection, and every 8 h for 48 h after MPTP injections. Eleven to 12 animals were used in each group. Animals were killed at 1 week. The two striata were rapidly dissected and placed in chilled 0.1M perchloric acid. Tissue was subsequently sonicated, and aliquots were taken for protein quantification using a fluorometric assay (Beal et al., 1990) J. Neurochem. 55:1327-1339).
Dopamine, 3,4-dihydroxyphenlyacetic acid (DOPAC), homovanillic acid (HVA), p-tyrosine, and 3-nitrotyrosine were quantified by HPLC with 16-electrode electrochemical detection (Beal et al. (1990) supra) and are expressed as ng/mg protein (mean±SEM) (FIG. 1). 3-Nitrotyrosine data are expressed as ratios of 3-nitrotyrosine to p-tyrosine to normalize for differing brain concentrations of tyrosine. The statistical significance of differences was determined via one-way ANOVA followed by Fisher PLSD post hoc test to compare group means. All animal use procedures were in strict accordance with the NIH Guide for the Care and Use of Laboratory Animals and were approved by the local Animal Care Committee.

MAO-B [1] = target: T1, MAO-B (Mus musculus, UniProt Q8BW75); assay: MAO-B activity in forebrain mitochondrial fractions of treated mice; assay type: biochemical; details: four doses at 2-h intervals: deprenyl 10 mg/kg i.p. or 7-NI 50 mg/kg s.c.; vehicle 5.79±0.44
T1 construct: Crude mitochondrial preparations were obtain from the forebrains; from tissue; host or cells: mouse forebrain, crude mitochondrial fraction (P2 pellet on a discontinuous Ficoll gradient)
T1 sequence (Q8BW75 1-520): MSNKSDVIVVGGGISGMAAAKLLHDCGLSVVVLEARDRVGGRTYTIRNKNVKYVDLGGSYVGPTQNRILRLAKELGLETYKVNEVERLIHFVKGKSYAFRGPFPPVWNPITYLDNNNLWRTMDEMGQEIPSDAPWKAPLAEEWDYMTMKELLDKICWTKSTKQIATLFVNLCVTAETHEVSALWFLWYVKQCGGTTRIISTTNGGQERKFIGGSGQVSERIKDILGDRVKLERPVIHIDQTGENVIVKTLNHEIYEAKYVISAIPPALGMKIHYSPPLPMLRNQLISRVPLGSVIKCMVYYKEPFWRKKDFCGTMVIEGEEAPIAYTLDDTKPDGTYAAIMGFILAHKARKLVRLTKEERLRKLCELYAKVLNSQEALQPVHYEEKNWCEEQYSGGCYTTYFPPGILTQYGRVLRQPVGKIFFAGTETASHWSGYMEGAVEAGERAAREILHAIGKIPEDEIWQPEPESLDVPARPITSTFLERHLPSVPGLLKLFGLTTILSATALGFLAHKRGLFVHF

MAO-B [2] = target: T1, MAO-B; assay: MAO-B activity in vitro, mitochondrial fraction of mouse forebrain; assay type: biochemical; details: at 1, 10, and 100 μM
Male Sprague-Dawley rats [3] = assay: Body temperature in rats under pentobarbital anesthesia; assay type: in vivo, rat; details: 1 h after 50 mg/kg 7-NI i.p., control 36.5±0.1, p<0.02
Method: Stereotaxic Lesion Technique. Male Sprague-Dawley rats (Charles River, Cambridge, Mass.) weighing 300-325 g were anesthetized with pentobarbital (50 mg/kg i.p.) and positioned in a David Kopf stereotaxic instrument with the incisor bar set at 3.3 mm below the intermural line. Malonate, NMDA, KA, and AMPA were dissolved in 0.1M phosphate-buffered saline (pH, 7.4). Intrastriatal injections were made with a 10 μl Hamilton syringe fitted with a 30 gauge blunt-tipped needle into the left striatum at the coordinates 0.5 mm anterior bregma, 2.6 mm lateral to the midline and 5 mm ventral to the dura. Injection volumes were 1 μl (3 μmol malonate). All injections were made over 1 min and the needle was left in place for an additional 1 min before being slowly withdrawn. 7-NI was dissolved and sonicated in peanut oil at a concentration of 10 mg/ml. 50 mg/kg of 7-NI were administered i.p. 30 min before striatal injections of malonate, NMDA, KA and AMPA. […] Nine to ten animals were used per group in each experiment.

rats = assay: Striatal ATP after intrastriatal malonate (luciferin-luciferase); assay type: in vivo, rat; details: 7-NI 50 mg/kg; 3 μmol malonate; measured 1.5 h after injection
Method: ATP Measurements. The effects of 7-NI on malonate-induced decreases in striatal ATP concentrations were examined. 50 mg/kg of 7-NI dissolved in peanut oil or peanut oil vehicle were administered i.p. 0.5 h before intrastriatal injection of 3 μmol malonate. […] After decapitation the heads were rapidly frozen in liquid nitrogen and subsequently stored at -70° C. The striata were dissected from a 2 mm slice frontal and adjacent to the anterior commissure on a freezing cold plate. The corpus callosum, the septal complex, and the anterior commissure were used as dorsal and lateral, medial, and ventral boundaries. ATP was measured by the luciferin-luciferase assay (Lust et al. (1981) Anal. Biochem. 110-258-266). Proteins were measured on the pellets using a fluorimetric assay. Eight animals per group were examined.

[4] = Yoshida et al. 1994; cited from earlier work
mice = assay: Rectal temperature in mice; details: 7-NI 50 mg/kg
Method: To exclude the possibility that hypothermia may contribute to the protection, we maintained body temperature at 37.5° C. in controls, mice treated with four doses of MPTP at 20 mg/kg, and mice additionally treated with 7-NI (n=6 per group).

Male Sprague-Dawley rats [5] = assay: Spontaneous striatal electrophysiological activity; details: 60 minutes after 50 mg/kg 7-NI; urethane anesthetized rats
Method: Electrophysiology. Four male Sprague-Dawley rats weighing 300 to 400 g were used for electrophysiological studies. Animals were anesthetized with urethane 1.5 g/kg i.p. and placed in a stereotaxic apparatus with their body temperatures maintained at 37° C. by a feedback heating pad. A 0.5×0.5 cm craniotomy was made and recording electrodes were placed in the anterior striatum using stereotaxic coordinates and aural monitoring. Following electrode placement the craniotomy was covered with 4% agar in saline and 30 min were allowed for stabilization before recordings were made. The spontaneous activity of multiple units were recorded extracellularly in the striatum, 3-4 mm anterior to the bregma and 3-4 mm lateral to the midline at a depth of 2.5-4.0 mm using commercially available tungsten microelectrodes (4 M.OMEGA. at 1 kHz, F. Haer, Inc.). […] Data acquisition and analysis of mean firing rate was performed using Discovery.COPYRGT., Experimenters WorkBench.COPYRGT. and Personal Scientific Workstation.COPYRGT. software (DataWave Technologies, Longmont, Colo.). We investigated the electrophysiological effects of the NMDA antagonist MK-801 and the NOS inhibitor 7-NI. […] Finally, spontaneous activity was recorded after the NMDA channel mediated activity was blocked by injection of MK-801 (4 mg/kg).

O=[N+]([O-])c1cccc2cn[nH]c12 [7-NI, 7-nitroindazole]
striatal dopamine, % of control values (Male Swiss-Webster mice; MPTP 10 mg/kg i.p. x6 at 2-h intervals, 7-NI 50 mg/kg s.c.): 92 % of control values | protection against MPTP-induced depletions of dopamine, HVA and DOPAC (Male Swiss-Webster mice; MPTP 20 mg/kg i.p. x4, 7-NI 50 mg/kg): almost complete protection | MAO-B activity in forebrain mitochondrial fraction after in vivo treatment (MAO-B [1]): 5.69±0.40 nmol/min/mg of protein | inhibition of MAO-B activity in vitro (MAO-B [2]): did not inhibit | body temperature (Male Sprague-Dawley rats [3]): 35.9±0.26 ° c. | malonate-induced decreases of striatal ATP concentrations (rats): significantly attenuated | efficacy against focal ischemic lesions in vivo [4]: efficacious | decrease in rectal temperature vs peanut oil controls (mice; 0.5 h after injection, p=0.03): 0.6 °C | rectal temperature (mice; 0.5 h after injection, peanut oil controls 36.8±0.2): 36.2±0.1 °C | change in rectal temperature vs peanut oil controls (mice; 1 h after injection): no significant decrease | mean spontaneous firing rate in striatum (Male Sprague-Dawley rats [5]): not significantly different from the baseline
